Test results as given in patent publication US20240360151A1 (SANOFI, priority 2023, published 2024).

How the values were obtained:
[1] = tested on: NF-kB pathway (TNF-α secretion by THP-1 cells); assay: TNF-α secretion assay in LPS-stimulated THP-1 cells, Lumit immunoassay; format: cell-based, human; conditions: Homo sapiens, THP-1, 3 h, monocytic THP-1 cells, LPS 10 ng/mL, relative IC50, 10 concentrations, geometric mean
Procedure, shortened: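 TNF-α release was quantified directly in the cell plate by Lumit immunoassay after a 3-h, 10 ng/mL LPS trigger of compound-treated THP-1 cells (RPMI, 5% FBS). Percent inhibition versus no-compound and unstimulated controls fed a 4-parameter logistic fit over 10 concentrations, giving geometric-mean relative IC50.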

NLRP3 inflammasome = target: T1, NLRP3 inflammasome (Homo sapiens, UniProt Q96P20); assay: IL-1β secretion assay (NLRP3 IC50) in LPS-primed, nigericin-activated THP-1 cells, HTRF; format: cell-based; conditions: monocytic THP-1 cells; LPS 10 ng/mL 3 h priming, then compound + nigericin 10 μM 2 h; relative IC50, 10 concentrations, geometric mean
T1 construct: endogenous in cells; host or cells: THP-1 monocytic cells
T1 sequence (Q96P20 whole entry): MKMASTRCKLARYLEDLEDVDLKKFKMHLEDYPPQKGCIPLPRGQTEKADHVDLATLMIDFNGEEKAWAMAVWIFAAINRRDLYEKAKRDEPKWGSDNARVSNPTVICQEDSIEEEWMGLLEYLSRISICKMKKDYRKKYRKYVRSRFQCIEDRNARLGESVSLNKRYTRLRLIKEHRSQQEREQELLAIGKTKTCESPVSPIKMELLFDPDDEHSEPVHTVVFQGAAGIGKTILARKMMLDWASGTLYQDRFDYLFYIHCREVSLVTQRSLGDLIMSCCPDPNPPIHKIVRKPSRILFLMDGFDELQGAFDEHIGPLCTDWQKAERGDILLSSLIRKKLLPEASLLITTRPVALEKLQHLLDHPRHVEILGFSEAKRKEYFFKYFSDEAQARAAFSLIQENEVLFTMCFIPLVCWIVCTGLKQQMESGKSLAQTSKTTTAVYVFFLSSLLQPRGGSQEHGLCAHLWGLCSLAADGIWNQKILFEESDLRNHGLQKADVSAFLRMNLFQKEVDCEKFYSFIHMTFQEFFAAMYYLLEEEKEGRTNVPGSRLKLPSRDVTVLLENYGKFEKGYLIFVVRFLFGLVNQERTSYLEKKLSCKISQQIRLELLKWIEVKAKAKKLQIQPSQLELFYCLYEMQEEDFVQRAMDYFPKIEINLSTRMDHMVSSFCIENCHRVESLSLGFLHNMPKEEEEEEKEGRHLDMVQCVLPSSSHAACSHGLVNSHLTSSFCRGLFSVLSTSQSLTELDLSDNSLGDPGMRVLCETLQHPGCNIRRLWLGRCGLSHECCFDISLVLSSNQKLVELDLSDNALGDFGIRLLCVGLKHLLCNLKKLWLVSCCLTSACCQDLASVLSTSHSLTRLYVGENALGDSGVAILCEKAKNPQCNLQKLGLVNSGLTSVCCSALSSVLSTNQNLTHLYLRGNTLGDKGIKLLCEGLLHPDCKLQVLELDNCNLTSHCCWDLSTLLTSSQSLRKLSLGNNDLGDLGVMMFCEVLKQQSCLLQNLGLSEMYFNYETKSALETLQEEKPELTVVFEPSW
Procedure, shortened: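 IL-1β in supernatant read by HTRF after 2 h co-incubation of compound (0.1% DMSO, 10 concentrations, 1:3 series) with nigericin at 10 μM final, following 3 h LPS (10 ng/mL) priming of THP-1 monocytes at 37° C. Inhibition normalised to unactivated and no-compound controls; geometric-mean relative IC50 from 4-parameter logistic model.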

Row | Structure (SMILES) | IC50 [1] [nM] | IC50 (NLRP3 inflammasome) [nM]
1 | CCN1CC[C@H]2OCCN(c3cc(C(F)F)c(-c4ccc(C)cc4O)nn3)[C@H]2C1 [Example 323, 2-[6-[(4aS,8aR)-6-ethyl-3,4a,5,7,8,8a-hexahydro-2H-pyrido[4,3-b][1,4]oxazin-4-yl]-4-(difluoromethyl)pyridazin-3-yl]-5-methyl-phenol] | > 10000 | 3
2 | Cc1cc(N2CCO[C@H](CO)C2)nnc1-c1ccc2c(c1O)CCC2 [Example 324, 5-[6-[(2S)-2-(hydroxymethyl)morpholin-4-yl]-4-methyl-pyridazin-3-yl]indan-4-ol] | > 10000 | 56
3 | Cc1cc(Cl)cc(O)c1-c1ccc(N2CCO[C@@H](CF)C2)nn1 [Example 338, 5-chloro-2-[6-[(2R)-2-(fluoromethyl)morpholin-4-yl]pyridazin-3-yl]-3-methyl-phenol] | > 10000 | 46
4 | CC(=O)N1CC[C@H]2OCCN(c3cc(C)c(-c4ccc(Cl)cc4O)nn3)[C@H]2C1 [Example 357, 1-[(4aS,8aR)-4-[6-(4-chloro-2-hydroxy-phenyl)-5-methyl-pyridazin-3-yl]-3,4a,5,7,8,8a-hexahydro-2H-pyrido[4,3-b][1,4]oxazin-6-yl]ethanone] | > 10000 | 48
5 | Cc1cc(C)c(-c2ccc(N3C[C@@H](CO)O[C@H](C)C3)nn2)c(O)c1 [Example 359, 2-[6-[(2S,6R)-2-(hydroxymethyl)-6-methyl-morpholin-4-yl]pyridazin-3-yl]-3,5-dimethyl-phenol] | > 10000 | 98
6 | Cc1cc(C)c(-c2ccc(N3C[C@H](CO)O[C@H](C)C3)nn2)c(O)c1 [Example 365, 2-[6-[(2R,6R)-2-(hydroxymethyl)-6-methyl-morpholin-4-yl]pyridazin-3-yl]-3,5-dimethyl-phenol] | > 10000 | 28
7 | Cc1cc(C(F)(F)F)cc(O)c1-c1nnc(N2C[C@@H](O)CC2=O)cc1C(F)F [Example 372, (4S)-1-[5-(difluoromethyl)-6-[2-hydroxy-6-methyl-4-(trifluoromethyl)phenyl]pyridazin-3-yl]-4-hydroxy-pyrrolidin-2-one] | > 10000 | 94
8 | CCc1cc(Cl)cc(O)c1-c1ccc(N2CCO[C@@H]3CCN(C(C)=O)C[C@@H]32)nn1 [Example 381, 1-[(4aS,8aR)-4-[6-(4-chloro-2-ethyl-6-hydroxy-phenyl)pyridazin-3-yl]-3,4a,5,7,8,8a-hexahydro-2H-pyrido[4,3-b][1,4]oxazin-6-yl]ethanone] | > 10000 | 3
9 | Oc1cc(C(F)(F)F)ccc1-c1nnc(N2CCO[C@@H]3CCNC[C@@H]32)cc1C(F)F [Example 382, 2-[6-[(4aS,8aR)-2,3,4a,5,6,7,8,8a-octahydropyrido[4,3-b][1,4]oxazin-4-yl]-4-(difluoromethyl)pyridazin-3-yl]-5-(trifluoromethyl)phenol] | > 10000 | 12
10 | CC(=O)N1CC[C@H]2OCCN(c3cc(C(F)F)c(-c4ccc(C)cc4O)nn3)[C@H]2C1 [Example 387, 1-[(4aS,8aR)-4-[5-(difluoromethyl)-6-(2-hydroxy-4-methyl-phenyl)pyridazin-3-yl]-3,4a,5,7,8,8a-hexahydro-2H-pyrido[4,3-b][1,4]oxazin-6-yl]ethanone] | > 10000 | 31
11 | Cc1cc(C)c(-c2ccc(N3C[C@@H](CO)O[C@@H](C)C3)nn2)c(O)c1 [Example 390, 2-[6-[(2S,6S)-2-(hydroxymethyl)-6-methyl-morpholin-4-yl]pyridazin-3-yl]-3,5-dimethyl-phenol] | > 10000 | 33
12 | [O-][S+]1CCN(c2ccc(-c3c(O)cc(Cl)cc3Cl)nn2)CC1 [Example 400, 3,5-dichloro-2-[6-(1-oxo-1,4-thiazinan-4-yl)pyridazin-3-yl]phenol] | > 10000 | 93
13 | CC(=O)N1CC[C@H]2OCCN(c3nnc(-c4c(C)cc(C)cc4O)cc3C(F)F)[C@H]2C1 [Example 405, 1-[(4aS,8aR)-4-[4-(difluoromethyl)-6-(2-hydroxy-4,6-dimethyl-phenyl)pyridazin-3-yl]-3,4a,5,7,8,8a-hexahydro-2H-pyrido[4,3-b][1,4]oxazin-6-yl]ethanone] | > 10000 | 89
14 | CCc1cccc(O)c1-c1ccc(N2CCO[C@@H]3CCN(CC)C[C@@H]32)nn1 [Example 408, 2-[6-[(4aS,8aR)-6-ethyl-3,4a,5,7,8,8a-hexahydro-2H-pyrido[4,3-b][1,4]oxazin-4-yl]pyridazin-3-yl]-3-ethyl-phenol] | > 10000 | 2

Next, values leading:

Row | IC50 [1] [nM] | IC50 (NLRP3 inflammasome) [nM] | Structure (SMILES)
15 | > 10000 | 1 | CN1CC[C@H]2OCCN(c3cc(C(F)F)c(-c4ccc(Cl)cc4O)nn3)[C@H]2C1 [Example 350, 2-[6-[(4aS,8aR)-6-methyl-3,4a,5,7,8,8a-hexahydro-2H-pyrido[4,3-b][1,4]oxazin-4-yl]-4-(difluoromethyl)pyridazin-3-yl]-5-chloro-phenol]
16 | > 10000 | 29 | Cc1ccc(F)c(O)c1-c1ccc(N2CCO[C@@H]3CCN(C)C[C@@H]32)nn1 [Example 353, 2-[6-[(4aS,8aR)-6-methyl-3,4a,5,7,8,8a-hexahydro-2H-pyrido[4,3-b][1,4]oxazin-4-yl]pyridazin-3-yl]-6-fluoro-3-methyl-phenol]
17 | > 10000 | 20 | Cc1cccc(O)c1-c1ccc(N2CCO[C@@H]3CCN(C)C[C@@H]32)nn1 [Example 354, 2-[6-[(4aS,8aR)-6-methyl-3,4a,5,7,8,8a-hexahydro-2H-pyrido[4,3-b][1,4]oxazin-4-yl]pyridazin-3-yl]-3-methyl-phenol]
18 | > 10000 | 61 | Cc1cc(N2CCO[C@@H]3CCN(C)C[C@@H]32)nnc1-c1cccc(F)c1O [Example 356, 2-[6-[(4aS,8aR)-6-methyl-3,4a,5,7,8,8a-hexahydro-2H-pyrido[4,3-b][1,4]oxazin-4-yl]-4-methyl-pyridazin-3-yl]-6-fluoro-phenol]
19 | > 10000 | 11 | CCc1cccc(O)c1-c1ccc(N2CCO[C@@H]3CCN(C)C[C@@H]32)nn1 [Example 358, 2-[6-[(4aS,8aR)-6-methyl-3,4a,5,7,8,8a-hexahydro-2H-pyrido[4,3-b][1,4]oxazin-4-yl]pyridazin-3-yl]-3-ethyl-phenol]
20 | > 10000 | 16 | CC(=O)N1CC[C@H]2OCCN(c3cc(C)c(-c4ccc(C(F)(F)F)cc4O)nn3)[C@H]2C1 [Example 363, 1-[(4aS,8aR)-4-[6-[2-hydroxy-4-(trifluoromethyl)phenyl]-5-methyl-pyridazin-3-yl]-3,4a,5,7,8,8a-hexahydro-2H-pyrido[4,3-b][1,4]oxazin-6-yl]ethanone]
21 | > 10000 | 1.1 | Cc1ccc(-c2nnc(N3CCO[C@@H]4CCN(C)C[C@@H]43)cc2C)c(O)c1 [Example 373, 2-[6-[(4aS,8aR)-6-methyl-3,4a,5,7,8,8a-hexahydro-2H-pyrido[4,3-b][1,4]oxazin-4-yl]-4-methyl-pyridazin-3-yl]-5-methyl-phenol]
22 | > 10000 | 1 | Cc1cc(N2CCO[C@@H]3CCN(C)C[C@@H]32)nnc1-c1ccc(Cl)cc1O [Example 379, 2-[6-[(4aS,8aR)-6-methyl-3,4a,5,7,8,8a-hexahydro-2H-pyrido[4,3-b][1,4]oxazin-4-yl]-4-methyl-pyridazin-3-yl]-5-chloro-phenol]
23 | > 10000 | 4 | CCc1cc(C(F)(F)F)cc(O)c1-c1ccc(N2CCO[C@@H]3CCN(C(C)=O)C[C@@H]32)nn1 [Example 380, 1-[(4aS,8aR)-4-[6-[2-ethyl-6-hydroxy-4-(trifluoromethyl)phenyl]pyridazin-3-yl]-3,4a,5,7,8,8a-hexahydro-2H-pyrido[4,3-b][1,4]oxazin-6-yl]ethanone]
24 | > 10000 | 19 | CC(=O)N1CC[C@H]2OCCN(c3cc(C(F)F)c(-c4ccc(C(F)(F)F)cc4O)nn3)[C@H]2C1 [Example 386, 1-[(4aS,8aR)-4-[5-(difluoromethyl)-6-[2-hydroxy-4-(trifluoromethyl)phenyl]pyridazin-3-yl]-3,4a,5,7,8,8a-hexahydro-2H-pyrido[4,3-b][1,4]oxazin-6-yl]ethanone]
25 | > 10000 | 31 | Cc1cc(C(F)(F)F)cc(O)c1-c1ccc(N2CC[C@H]3CCN(C)C[C@H]32)nn1 [Example 391, 2-[6-[(3aR,7aS)-6-methyl-3,3a,4,5,7,7a-hexahydro-2H-pyrrolo[2,3-c]pyridin-1-yl]pyridazin-3-yl]-3-methyl-5-(trifluoromethyl)phenol]
26 | > 10000 | 1 | Cc1cc(C(F)(F)F)cc(O)c1-c1ccc(N2CC[C@@H]3CCN(C)C[C@@H]32)nn1 [Example 392, 2-[6-[(3aS,7aR)-6-methyl-3,3a,4,5,7,7a-hexahydro-2H-pyrrolo[2,3-c]pyridin-1-yl]pyridazin-3-yl]-3-methyl-5-(trifluoromethyl)phenol]
27 | > 10000 | 18 | CCN1CC[C@H]2OCCN(c3ccc(-c4c(C)cccc4O)nn3)[C@H]2C1 [Example 412, 2-[6-[(4aS,8aR)-6-ethyl-3,4a,5,7,8,8a-hexahydro-2H-pyrido[4,3-b][1,4]oxazin-4-yl]pyridazin-3-yl]-3-methyl-phenol]
28 | > 10000 | 13 | CCc1cc(C(F)(F)F)cc(O)c1-c1ccc(N2CCO[C@H](CO)C2)nn1 [Example 418, 3-ethyl-2-[6-[(2S)-2-(hydroxymethyl)morpholin-4-yl]pyridazin-3-yl]-5-(trifluoromethyl)phenol]
